In brackets after ≈: the same amount, converted by molar mass. Where two headings read alike, the source gives them in different places.
Experiments:
[1] = test system: Batrachochytrium dendrobatidis Bd-GPL strain JEL404; settings: slope of growth, positive = inhibition, negative = no inhibition
Protocol: Bd-peptide challenge assays were conducted with the crude peptides extracted from the salamander skin secretions and with the 20 synthesized peptides. We followed methods by Pereria et al.[49] to conduct assays with the crude peptides using Bd-GPL strain JEL404 at 1 × 10^6 zoospores/mL. Briefly, skin peptide samples were pooled together based on species-site-injection (Table 1). Skin peptides samples were serially diluted 2-fold in MilliQ (Ultrapure Type 1) water and assayed at a concentration of 2.35–75 μg/mL based on starting peptide concentration available. For synthesized peptides, we conducted assays from 15.6 to 500 μg/ml. In both assays, we quantified percent inhibition of each well using slope of growth[90] in which positive values indicate inhibition and negative values indicate no inhibition.

HepG2 (ATCC HB-8065) = test: HepG2 cytotoxicity, MTT assay; assay type: cell-based, human; settings: at concentrations up to 5.25 μg/mL (5.25 to 0.15 µg/mL), 48 h
Protocol: For any inhibitory peptides, HepG2 (ATCC HB-8065) cytotoxicity was tested to determine half-maximal inhibitory concentration (IC50) of human cells. The procedure involved seeding 96-well plates with 2.5 × 10^4 cells per well in 170 µL of culture medium, followed by an overnight incubation at 37 °C in a 5% CO₂ atmosphere. Subsequently, cells were exposed to varying concentrations of the test peptides, ranging from 5.25 µg/mL to 0.15 µg/mL, and incubated for an additional 48 h. Cell viability was assessed using the MTT assay, as previously described. Absorbance measurements were obtained using a PerkinElmer EnSight plate reader. The IC50 values for each compound were calculated by fitting the data to a sigmoidal dose-response curve with variable slope using GraphPad Prism software. Each assay plate included three controls: (a) background control—wells without cells and without drug; (b) positive control—wells with cells and 10 µg/mL of a known toxic compound; and (c) DMSO control—wells with cells and 0.2% DMSO, the highest concentration of DMSO used in the assay, which is non-toxic to the cells.

K. pneumoniae 4640 [2] = settings: K. pneumoniae 4640
A. baumannii 5075 [3] = test system: A. baumannii 5075
[4] = set-up: method as in Biomatik (vendor); settings: 1.0 mg peptide in 1.0 ml solvent; peptides synthesized by Biomatik; ref Biomatik (vendor); cited from earlier work
E. cloacae ATCC 35549 = test: microbe, parasite or virus in culture; settings: for Bacterial MIC: E. cloacae 35549; for MIC: Enterobacter cloacae
Procedure, shortened: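 Peptides tested 0.25–128 μg/mL (2-fold dilutions, TFA/BSA carrier) against 1 × 10⁵ CFU/mL inoculum in CAMHB, duplicates.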

K. pneumoniae 4640 [5] = test: microbe, parasite or virus in culture
A. baumannii 5075 [6] = test: microbe, parasite or virus in culture
[7] = CAMHB, 1 × 10⁵ CFU/mL, 0.25 to 128 μg/mL, 37 °C 20 h, duplicate, read visually (CLSI)

CC[C@H](C)[C@H](NC(=O)[C@H](CCCCN)NC(=O)[C@H](CCC(=O)O)NC(=O)[C@H](CCCCN)NC(=O)[C@H](CO)NC(=O)[C@H](CCCCN)NC(=O)[C@H](CCCNC(=N)N)NC(=O)[C@H](Cc1ccccc1)NC(=O)[C@H](Cc1ccccc1)NC(=O)[C@H](CC(=O)O)NC(=O)CNC(=O)[C@H](CC(C)C)NC(=O)[C@@H](N)CC(C)C)C(=O)NCC(=O)N[C@@H](CCCCN)C(=O)N[C@@H](CCC(=O)O)C(=O)N[C@@H](Cc1ccccc1)C(=O)N[C@@H](CCCCN)C(=O)N[C@@H](CCCNC(=N)N)C(=O)N[C@H](C(=O)N[C@H](C(=O)N[C@@H](CCC(N)=O)C(=O)N[C@@H](CCCNC(=N)N)C(=O)N[C@H](C(=O)N[C@@H](CCCCN)C(=O)N[C@@H](CC(=O)O)C(=O)N[C@@H](Cc1ccccc1)C(=O)N[C@@H](CC(C)C)C(=O)N[C@@H](CCCNC(=N)N)C(=O)N[C@@H](CC(N)=O)C(=O)N[C@@H](CC(C)C)C(=O)N[C@H](C(=O)N1CCC[C@H]1C(=O)N[C@@H](CCCNC(=N)N)C(=O)N[C@H](C(=O)N[C@@H](CCC(=O)O)C(=O)N[C@@H](CO)C(=O)O)[C@@H](C)O)C(C)C)[C@@H](C)CC)C(C)C)[C@@H](C)CC [LL-37, reference compound]
Bd inhibition score (percent inhibition), mean ([1]; synthesized peptide 15.625 μg/mL): -44.2834%
Bd inhibition score (percent inhibition), mean ([1]; synthesized peptide 31.25 μg/mL): -68.3967%
Bd inhibition score (percent inhibition), mean ([1]; synthesized peptide 62.5 μg/mL): -39.8112%
Bd inhibition score (percent inhibition), mean ([1]; synthesized peptide 125 μg/mL): -55.6571%
Bd inhibition score (percent inhibition), mean ([1]; synthesized peptide 250 μg/mL): -81.8611%
Bd inhibition score (percent inhibition), mean ([1]; synthesized peptide 500 μg/mL): -318.384%
HepG2 cytotoxicity in words (HepG2 (ATCC HB-8065)): No HepG2 cytotox was observed
MIC (K. pneumoniae 4640 [2]; [7]): 64 µg/mL (≈ 14.2 µM)
Bacterial MIC (K. pneumoniae 4640 [2]; Week 1 (12/6/2023)): 64 µg/mL
Bacterial MIC (K. pneumoniae 4640 [2]; Week 2 (12/14/2023)): 64 µg/mL
MIC (A. baumannii 5075 [3]; [7]): 4 µg/mL (≈ 0.89 µM)
Bacterial MIC (A. baumannii 5075 [3]; Week 1 (12/6/2023)): 4 µg/mL
Bacterial MIC (A. baumannii 5075 [3]; Week 2 (12/14/2023)): 4 µg/mL
Suggest solvent (solubility) [4]: 1.0mg peptide soluble in 1.0ml (H2O:Acetonitrile=3:1)

C[C@H]1COc2c(N3CCN(C)CC3)c(F)cc3c(=O)c(C(=O)O)cn1c23 [Levofloxacin, reference compound]
Bacterial MIC (E. cloacae ATCC 35549; Historical run 15NOV23): <= 0.250 µg/mL
Bacterial MIC (E. cloacae ATCC 35549; Historical run 19APRIL23): <= 0.250 µg/mL
Bacterial MIC (E. cloacae ATCC 35549; Historical run 22NOV23): <= 0.250 µg/mL
Bacterial MIC (E. cloacae ATCC 35549; Week 2 (12/14/2023)): <= 0.250 µg/mL
MIC (E. cloacae ATCC 35549; ATCC35549, 20 h): 0.25 µg/mL (≈ 0.692 µM)
MIC (E. cloacae ATCC 35549; ATCC35549, read-out: Bacterial MIC): ≤ 0.25 µg/mL
MIC (K. pneumoniae 4640 [5]; Klebsiella pneumoniae, 4640, 20 h, K. pneumoniae 4640, CAMHB, 1 × 10⁵ CFU/mL, 0.25 to 128 μg/mL, 37 °C 20 h, duplicate, read visually (CLSI)): 32 µg/mL (≈ 88.6 µM)
MIC (K. pneumoniae 4640 [5]; Klebsiella pneumoniae, 4640, read-out: Bacterial MIC, K. pneumoniae 4640, Historical run 15NOV23): 32 to 64 µg/mL (≈ 88.6 to 177 µM)
MIC (K. pneumoniae 4640 [5]; Klebsiella pneumoniae, 4640, read-out: Bacterial MIC, K. pneumoniae 4640, Historical run 19APRIL23): 64 µg/mL (≈ 177 µM)
MIC (K. pneumoniae 4640 [5]; Klebsiella pneumoniae, 4640, read-out: Bacterial MIC, K. pneumoniae 4640, Historical run 22NOV23): 32 µg/mL (≈ 88.6 µM)
MIC (K. pneumoniae 4640 [5]; Klebsiella pneumoniae, 4640, read-out: Bacterial MIC, K. pneumoniae 4640, Week 1 (12/6/2023)): 32 µg/mL (≈ 88.6 µM)
MIC (K. pneumoniae 4640 [5]; Klebsiella pneumoniae, 4640, read-out: Bacterial MIC, K. pneumoniae 4640, Week 2 (12/14/2023)): 32 µg/mL (≈ 88.6 µM)
MIC (A. baumannii 5075 [6]; Acinetobacter baumannii, 5075, 20 h, A. baumannii 5075, CAMHB, 1 × 10⁵ CFU/mL, 0.25 to 128 μg/mL, 37 °C 20 h, duplicate, read visually (CLSI)): 4 µg/mL (≈ 11.1 µM)
MIC (A. baumannii 5075 [6]; Acinetobacter baumannii, 5075, read-out: Bacterial MIC, A. baumannii 5075, Historical run 15NOV23): 8 µg/mL (≈ 22.1 µM)
MIC (A. baumannii 5075 [6]; Acinetobacter baumannii, 5075, read-out: Bacterial MIC, A. baumannii 5075, Historical run 19APRIL23): 4 µg/mL (≈ 11.1 µM)
MIC (A. baumannii 5075 [6]; Acinetobacter baumannii, 5075, read-out: Bacterial MIC, A. baumannii 5075, Historical run 22NOV23): 4 µg/mL (≈ 11.1 µM)
MIC (A. baumannii 5075 [6]; Acinetobacter baumannii, 5075, read-out: Bacterial MIC, A. baumannii 5075, Week 1 (12/6/2023)): 4 µg/mL (≈ 11.1 µM)
MIC (A. baumannii 5075 [6]; Acinetobacter baumannii, 5075, read-out: Bacterial MIC, A. baumannii 5075, Week 2 (12/14/2023)): 4 µg/mL (≈ 11.1 µM)
